Experimental data as given in patent US20240148779A1, “METHODS FOR THE TREATMENT OF PROTEINOPATHIES” (RENATUS INC., priority 2022, published 2024).

Experiments:
SH-SY5Y cells [1] = assay: Cytotoxicity induced by cyclodextrins in SH-SY5Y cells (CCK-8)
Procedure: HPBCD oligomer was prepared by using hydroxypropyl-beta-cyclodextrin (HPBCD) monomers with a molar substitution value between 0.4 and 0.8. […] SH-SY5Y cells were maintained using DMEM containing 10% fetal bovine serum, 1% Penicillin-Streptomycin, and retinoic acid (50 μM) to induce differentiation into neuron-like cells. Media was changed total three times (1, 3, and 5 days post-seeding) and the cells were seeded for experiments on the next day. The cells were seeded in a 96-well plate at a density of 5×10^4 cells per well. On the next day, the cells were treated with each cyclodextrin at 2.5 mg/mL, 5 mg/mL, 10 mg/mL, and 20 mg/mL for 24 hours. Cellular viability was measured using Cell Counting Kit-8 (CCK-8) and measuring the absorbance at 450 nm.

TNF-α = assay: Aβ42 aggregate-induced inflammation, secreted TNF-α by ELISA in SH-SY5Y cells; type: cell-based; details: Aβ42 25 μM, 24 hours, cyclodextrins 2.5 mg/mL, FIG. 12
Procedure: The pre-aggregated Aβ42 was treated at a concentration of 25 μM for 24 hours with or without cyclodextrins and enzyme-linked immunosorbent assay (ELISA) was performed to measure inflammatory cytokines secreted by the cells. […] GCD oligomer was prepared by using gamma-cyclodextrin (GCD) monomers.

ARPE-19 cells = assay: Cytotoxicity induced by pre-aggregated Aβ42 in ARPE-19 cells (CCK-8); type: cell-based; details: ARPE-19, Aβ42 25 μM, 48 hours, cyclodextrins 1, 2.5 and 5 mg/mL, FIG. 7
Procedure: (§1) Amyloid beta 1-42 (Aβ42) was dissolved in distilled water at a concentration of 1 mM, vortexed for 30 seconds, and then incubated at 37° C. for 7 days to induce pre-aggregation. […] ARPE-19 cells were maintained using DMEM/F12 media containing 10% fetal bovine serum, 1% Penicillin-Streptomycin, 1% HEPES, and 2.5 mM L-Glutamine. […] On the next day, the cells were treated with pre-aggregated Aβ42 at a concentration of 25 μM for 48 hours in the presence of cyclodextrins (1, 2.5, and 5 mg/mL).

SH-SY5Y cells [2] = assay: Cytotoxicity induced by pre-aggregated alpha-synuclein in SH-SY5Y cells; type: cell-based; details: αSyn 1 μM, 24 hours, cyclodextrins 1, 2.5 and 5 mg/mL, FIG. 8
Procedure: as §1
Using the SH-SY5Y cells, the cytotoxicity of aggregated alpha-synuclein (αSyn) was evaluated. The cells were treated with pre-aggregated αSyn (1 μM) for 24 hours in the presence of cyclodextrins (1, 2.5, and 5 mg/mL).

SH-SY5Y cells [3] = assay: Cytotoxicity induced by pre-aggregated Aβ42 in SH-SY5Y cells (CCK-8); type: cell-based; details: Aβ42 25 μM, 48 hours, cyclodextrins 1, 2.5 and 5 mg/mL, FIG. 7
Procedure: as §1
Then, we investigated the effects of molecular weights of gamma-cyclodextrin oligomers on the cytotoxicity induced by protein aggregates. […] The SH-SY5Y cells were treated with pre-aggregated Aβ42 for 48 hours in the presence of cyclodextrins (5 mg/mL).

SH-SY5Y cells [4] = assay: Plasma membrane cholesterol extraction in SH-SY5Y cells; type: cell-based; details: cyclodextrin 20 mg/mL, 37° C., 1 hour, FIG. 11
Procedure: Since cyclodextrin-mediated cytotoxicity is known to be caused by excessive plasma membrane cholesterol extraction and consequential membrane disruption, we investigated cholesterol extraction from the cells. […] The next day, the cells treated with cyclodextrins at a concentration of 20 mg/mL at 37° C. for 1 hour. The supernatant was collected, centrifuged at a rate of 14,000 g for 30 minutes to remove cell debris and microvesicles, and then the cholesterol concentration in the supernatant was quantified using a Cholesterol Quantification Kit (Sigma Aldrich).

| Compound | cellular viability (SH-SY5Y cells [1]; human, 24 h, 20 mg/mL) [%] | level of secreted TNF-α (TNF-α) | cellular viability (SH-SY5Y cells [1]; SH-SY5Y, cyclodextrin 20 mg/mL, 24 hours, FIG. 10) [%] | effect on cytotoxicity induced by Aβ42 aggregate (ARPE-19 cells) | effect on cytotoxicity induced by αSyn aggregate (SH-SY5Y cells [2]) | effect on cytotoxicity induced by Aβ42 aggregate (SH-SY5Y cells [3]) | level of plasma membrane cholesterol extraction (SH-SY5Y cells [4]) |
| --- | --- | --- | --- | --- | --- | --- | --- |
| CC(O)COC[C@H]1O[C@@H]2O[C@H]3[C@H](O)[C@@H](O)[C@@H](O[C@H]4[C@H](O)[C@@H](O)[C@@H](O[C@H]5[C@H](O)[C@@H](O)[C@@H](O[C@H]6[C@H](O)[C@@H](O)[C@@H](O[C@H]7[C@H](O)[C@@H](O)[C@@H](O[C@H]8[C@H](O)[C@@H](O)[C@@H](O[C@H]1[C@H](O)[C@H]2O)O[C@@H]8COCC(C)O)O[C@@H]7COCC(C)O)O[C@@H]6COCC(C)O)O[C@@H]5COCC(C)O)O[C@@H]4COCC(C)O)O[C@@H]3COCC(C)O (stereo partly drawn) [HPBCD, hydroxypropyl-beta-cyclodextrin] | 43.25 | did not show significant effect | – | – | – | – | – |
| hydroxypropyl-gamma-cyclodextrin [HPGCD] | – | did not show significant effect | 81.38 | did not show such effect | less effective | did not show such effect | no significance compared to PBS |
